The values below come from patent publication US7329652B2, “Diaminotriazole compounds useful as protein kinase inhibitors” (Vertex Pharamaceuticals Incorporated, priority 2004, dated 2008).

Assay [1] has as its target T1, JAK3 (Homo sapiens, UniProt P52333).
T1 sequence (P52333 1-1124): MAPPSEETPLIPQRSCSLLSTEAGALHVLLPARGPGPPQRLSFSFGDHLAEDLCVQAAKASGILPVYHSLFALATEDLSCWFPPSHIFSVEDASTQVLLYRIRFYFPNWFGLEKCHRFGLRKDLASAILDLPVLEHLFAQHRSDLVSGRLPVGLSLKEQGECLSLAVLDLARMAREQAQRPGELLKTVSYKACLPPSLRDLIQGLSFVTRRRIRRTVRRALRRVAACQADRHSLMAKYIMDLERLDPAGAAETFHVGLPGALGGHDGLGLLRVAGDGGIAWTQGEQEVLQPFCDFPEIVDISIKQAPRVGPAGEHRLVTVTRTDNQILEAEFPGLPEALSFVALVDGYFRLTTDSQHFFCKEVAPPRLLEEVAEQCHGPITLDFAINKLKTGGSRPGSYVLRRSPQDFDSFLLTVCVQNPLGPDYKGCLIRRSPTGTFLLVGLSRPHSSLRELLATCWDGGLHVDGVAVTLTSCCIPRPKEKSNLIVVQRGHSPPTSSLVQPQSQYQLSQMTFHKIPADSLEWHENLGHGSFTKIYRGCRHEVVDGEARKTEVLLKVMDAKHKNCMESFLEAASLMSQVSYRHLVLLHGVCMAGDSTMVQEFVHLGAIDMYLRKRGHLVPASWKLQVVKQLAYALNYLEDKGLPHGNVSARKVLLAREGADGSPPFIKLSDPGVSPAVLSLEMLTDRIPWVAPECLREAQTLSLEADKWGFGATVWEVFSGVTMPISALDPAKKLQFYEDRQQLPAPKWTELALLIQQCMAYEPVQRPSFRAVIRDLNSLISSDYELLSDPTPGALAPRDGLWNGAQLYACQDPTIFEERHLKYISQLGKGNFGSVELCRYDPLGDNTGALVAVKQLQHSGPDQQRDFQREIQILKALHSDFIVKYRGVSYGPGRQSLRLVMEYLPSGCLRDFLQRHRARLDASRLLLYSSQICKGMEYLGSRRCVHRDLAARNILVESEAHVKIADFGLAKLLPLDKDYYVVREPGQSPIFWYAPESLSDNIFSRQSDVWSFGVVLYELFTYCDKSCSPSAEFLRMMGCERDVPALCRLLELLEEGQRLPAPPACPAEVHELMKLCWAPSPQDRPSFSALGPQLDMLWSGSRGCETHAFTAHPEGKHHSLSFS
Kind of assay: JAK3 inhibition assay (radiometric 33P filter assay). In kind it is biochemical. Particulars: 1 μM poly(Glu)4Tyr, 5 μM ATP, 1 nM JAK3, 25° C.; read-out: JAK3 inhibition data (Ki). The essentials:
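Final conditions were 1 nM JAK3, 5 μM ATP (200 uCi/μmole) and 1 μM poly(Glu)4Tyr in 100 mM HEPES pH 7.4, 10 mM MgCl2, 25 mM NaCl, 1 mM DTT and 0.01% BSA. After 20 min at 25 °C the reaction was stopped with TCA. 33P incorporation was counted after glass-fibre filtration.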

Assay [2] addresses JAK-2 enzyme (Homo sapiens, UniProt O60674). Kind of assay: JAK2 inhibition assay (radiometric 33P filter assay). In kind it is biochemical. Particulars: 15 μM poly(Glu)4Tyr, 12 μM ATP; read-out: JAK2 inhibition data (Ki). Summed up:
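JAK-2 enzyme in 100 mM HEPES pH 7.4, 1 mM DTT, 10 mM MgCl2, 25 mM NaCl, 0.01% BSA, with final 12 μM [33P]ATP and 15 μM poly(Glu)4Tyr. Reactions ran 20 min at 25 °C and were stopped with TCA. 33P incorporation was counted after glass-fibre filtration.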

Each structure is given as a SMILES string. pKi: −log10 of the molar value.

Sequence of JAK-2 enzyme (O60674 whole entry, species assumed): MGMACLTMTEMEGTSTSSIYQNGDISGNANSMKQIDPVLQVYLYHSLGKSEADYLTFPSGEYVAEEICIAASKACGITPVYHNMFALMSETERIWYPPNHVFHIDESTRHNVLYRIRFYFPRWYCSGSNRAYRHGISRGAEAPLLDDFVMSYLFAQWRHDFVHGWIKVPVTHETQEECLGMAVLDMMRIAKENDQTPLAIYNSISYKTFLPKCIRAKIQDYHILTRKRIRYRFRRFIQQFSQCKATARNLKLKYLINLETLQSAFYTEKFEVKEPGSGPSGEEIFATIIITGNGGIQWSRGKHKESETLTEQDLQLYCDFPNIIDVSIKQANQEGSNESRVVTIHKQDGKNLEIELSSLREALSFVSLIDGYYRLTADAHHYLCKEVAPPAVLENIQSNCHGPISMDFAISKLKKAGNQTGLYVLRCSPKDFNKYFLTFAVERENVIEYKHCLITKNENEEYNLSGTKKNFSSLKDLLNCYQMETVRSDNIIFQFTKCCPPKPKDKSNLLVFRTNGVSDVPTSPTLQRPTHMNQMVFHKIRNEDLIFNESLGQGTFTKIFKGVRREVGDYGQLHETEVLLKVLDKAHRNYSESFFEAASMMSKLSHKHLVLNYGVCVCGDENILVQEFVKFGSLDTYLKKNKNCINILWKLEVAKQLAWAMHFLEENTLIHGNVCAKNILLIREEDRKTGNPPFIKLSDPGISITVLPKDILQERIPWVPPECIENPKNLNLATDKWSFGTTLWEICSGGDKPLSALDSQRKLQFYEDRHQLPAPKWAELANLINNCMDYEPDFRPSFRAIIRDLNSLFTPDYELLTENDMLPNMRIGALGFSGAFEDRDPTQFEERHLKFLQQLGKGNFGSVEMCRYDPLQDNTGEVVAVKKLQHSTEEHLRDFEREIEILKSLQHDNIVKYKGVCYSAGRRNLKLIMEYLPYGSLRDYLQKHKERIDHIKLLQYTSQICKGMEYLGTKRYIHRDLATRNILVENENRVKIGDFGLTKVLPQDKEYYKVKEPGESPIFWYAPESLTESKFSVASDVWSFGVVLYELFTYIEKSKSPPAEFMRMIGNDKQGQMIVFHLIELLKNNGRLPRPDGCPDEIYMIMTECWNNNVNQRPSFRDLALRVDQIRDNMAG

As for `CCCOC(=O)N(C)c1ccc(Nc2nc(N)n(-c3cc(N4CCCN(C(C)=O)CC4)ncn3)n2)cc1` [Compound 129], the negative-log Ki (pKi) in assay [1] and in assay [2] was over 7.30 throughout.

With `CC(=O)N1CCCN(c2cc(-n3nc(Nc4ccc(NC(=O)NC(C)(C)C)cc4)nc3N)ncn2)CC1` [Compound 87], the pKi in assay [1] and in assay [2] was over 7.30 each time.

On to `CC(=O)N1CCCN(c2cc(-n3nc(Nc4ccc(NC(=O)O[C@H]5C[C@H](C)CC[C@H]5C(C)C)cc4)nc3N)ncn2)CC1` [Compound 97], for which the negative logarithm of the Ki (pKi) in assay [1] and in assay [2] was 6.30 to 7.30 throughout.

Take `CCCC(=O)N1CCN(c2ccc(Nc3nc(N)n(-c4cc(N5CCCN(C(C)=O)CC5)ncn4)n3)cc2)CC1` [Compound 37]: the pKi in assay [1] and in assay [2] was over 7.30 each time.

Consider `CCCOC(=O)N1CCN(c2ccc(Nc3nc(N)n(-c4cc(N5CCCN(C(C)=O)CC5)ncn4)n3)cc2)CC1` [Compound 47], for which the negative-log Ki (pKi) in assay [1] and in assay [2] was over 7.30 each time.

Consider `CC(=O)N1CCCN(c2cc(-n3nc(Nc4ccc(N5CCNCC5)cc4)nc3N)ncn2)CC1` [Compound 42], for which the pKi in assay [1] and in assay [2] was over 7.30 in each case.
